The source of these data is patent US8003783B2, “17B-hydroxysteroid dehydrogenase inhibitors” (Sterix Limited, priority 2004, dated 2011).

Like-named read-outs stand apart in the source and are kept apart here.

One may read the inhibition as the relative decrease from the control value, in per cent. In general, IC50 refers to the point on the concentration scale where inhibition reaches its midpoint.

In experiment [1] the test system is rats. The following applies: cited from earlier work.
Experiment [2] concerns the target T1, rat liver DHA-STS (Rattus norvegicus, UniProt P15589).
T1 construct: from tissue; host or cells: rat liver
T1 sequence (P15589 20-577): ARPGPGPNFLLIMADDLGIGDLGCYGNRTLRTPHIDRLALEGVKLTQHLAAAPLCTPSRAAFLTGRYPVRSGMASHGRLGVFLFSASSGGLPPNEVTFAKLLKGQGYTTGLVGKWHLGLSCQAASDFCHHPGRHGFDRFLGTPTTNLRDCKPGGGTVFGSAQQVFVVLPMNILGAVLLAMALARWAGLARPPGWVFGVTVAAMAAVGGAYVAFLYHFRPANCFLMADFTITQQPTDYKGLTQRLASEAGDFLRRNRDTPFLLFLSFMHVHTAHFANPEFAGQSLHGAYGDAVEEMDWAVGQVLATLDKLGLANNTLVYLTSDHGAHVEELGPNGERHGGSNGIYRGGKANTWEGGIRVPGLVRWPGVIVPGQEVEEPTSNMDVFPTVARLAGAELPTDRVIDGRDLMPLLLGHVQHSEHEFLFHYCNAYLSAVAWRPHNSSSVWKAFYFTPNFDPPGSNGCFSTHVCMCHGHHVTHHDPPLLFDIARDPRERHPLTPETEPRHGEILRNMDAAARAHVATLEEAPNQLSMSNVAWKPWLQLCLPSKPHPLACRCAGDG
The following applies: administered orally or subcutaneously; cited from earlier work.

Experiment [3] addresses T2, rat liver E1-STS (Rattus norvegicus, UniProt P15589).
T2 construct: samples of liver tissue were obtained and oestrone sulphatase activity assayed; from tissue; host or cells: rat liver
T2 sequence (P15589 20-577): T1 sequence (P15589 20-577)
As to conditions: administered orally or subcutaneously; cited from earlier work.

Experiment [4] has as its target T3, E1-STS (Homo sapiens, UniProt P08842).
T3 construct: endogenous in cells; host or cells: MCF-7 human breast cancer cells
T3 sequence (P08842 22-583): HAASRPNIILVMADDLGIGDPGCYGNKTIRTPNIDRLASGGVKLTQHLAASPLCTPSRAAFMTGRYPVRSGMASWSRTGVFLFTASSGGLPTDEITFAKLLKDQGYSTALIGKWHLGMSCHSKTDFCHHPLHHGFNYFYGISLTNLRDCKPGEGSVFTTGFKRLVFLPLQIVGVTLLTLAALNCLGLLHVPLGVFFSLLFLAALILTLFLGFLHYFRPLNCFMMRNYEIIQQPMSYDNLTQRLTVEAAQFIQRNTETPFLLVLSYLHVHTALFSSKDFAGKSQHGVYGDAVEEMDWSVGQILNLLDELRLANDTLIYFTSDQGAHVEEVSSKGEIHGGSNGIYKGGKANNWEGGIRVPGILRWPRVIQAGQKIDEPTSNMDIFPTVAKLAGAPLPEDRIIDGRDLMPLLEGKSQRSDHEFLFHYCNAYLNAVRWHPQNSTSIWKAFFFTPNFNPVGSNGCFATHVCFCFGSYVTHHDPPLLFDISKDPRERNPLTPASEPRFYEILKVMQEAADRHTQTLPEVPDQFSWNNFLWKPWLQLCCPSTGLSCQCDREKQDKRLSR
The arrangement: dose or concentration left out as unconfirmed. As to conditions: intact MCF-7 cells; cited from earlier work.

For experiment [5], the target named is T4, 17β-HSD2 (Homo sapiens, UniProt P37059).
T4 construct: was measured in intact cell monolayers of T47D and MDA-MB-231 breast cancer cells respectively; endogenous in cells; host or cells: MDA-MB-231 human breast cancer cells
T4 sequence (P37059 1-387): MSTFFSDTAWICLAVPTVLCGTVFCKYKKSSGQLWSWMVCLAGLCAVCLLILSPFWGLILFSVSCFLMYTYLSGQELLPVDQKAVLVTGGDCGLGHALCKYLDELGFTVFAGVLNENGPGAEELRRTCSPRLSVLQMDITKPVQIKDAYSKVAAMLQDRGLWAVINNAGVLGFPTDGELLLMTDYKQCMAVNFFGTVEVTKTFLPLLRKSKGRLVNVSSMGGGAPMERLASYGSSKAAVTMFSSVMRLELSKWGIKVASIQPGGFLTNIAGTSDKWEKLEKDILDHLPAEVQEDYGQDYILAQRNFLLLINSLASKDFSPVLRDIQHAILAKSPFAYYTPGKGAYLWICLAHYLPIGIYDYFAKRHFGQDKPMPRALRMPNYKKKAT
Kind of experiment: 17β-HSD Type II activity in MDA-MB-231 cells (E2→E1). In kind it is cell-based.

Experiment [6] addresses T5, 17β-HSD1 (Homo sapiens, UniProt P14061).
T5 construct: was measured in intact cell monolayers of T47D and MDA-MB-231 breast cancer cells respectively; endogenous in cells; host or cells: T-47D human breast cancer cells
T5 sequence (P14061 1-328): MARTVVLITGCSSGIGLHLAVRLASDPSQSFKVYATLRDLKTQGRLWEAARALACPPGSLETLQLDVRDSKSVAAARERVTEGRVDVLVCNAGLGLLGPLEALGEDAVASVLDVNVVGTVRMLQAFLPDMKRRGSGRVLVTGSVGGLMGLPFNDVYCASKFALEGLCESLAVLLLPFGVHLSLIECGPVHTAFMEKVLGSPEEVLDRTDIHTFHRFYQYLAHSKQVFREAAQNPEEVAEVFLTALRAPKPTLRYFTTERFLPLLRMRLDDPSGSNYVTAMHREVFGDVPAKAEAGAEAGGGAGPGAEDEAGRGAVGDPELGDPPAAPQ
Kind of experiment: 17β-HSD Type I activity in T-47D cells (E1→E2). In kind it is cell-based. The following applies: T-47D cells, E1→E2; for inhibition at 10 µM: T47D; for IC50: read-out: IC50 (17β-HSD1).

Where [7] appears, read: MDA-MB-231, read-out: % inhibition of 17β-HSD2 @ 10 μM.
Setting [8] is: read-out: % inhibition of 17β-HSD1 @ 10 μM, 10 μM.
The mark [9] stands for this setting: 10 μM, MDA-MB-231 cells, E2→E1, read-out: % inhibition of 17β-HSD2 @ 10 μM.
The mark [10] stands for this setting: 10 μM, read-out: % inhibition of 17β-HSD1 @ 10 μM.

For the compound `C[C@]12CC[C@@H]3c4ccc(OS(N)(=O)=O)cc4CC[C@H]3[C@@H]1CCC2=O` [EMATE, oestrone-3-sulphamate], the “oral uterotrophic activity relative to oestradiol” value in experiment [1] is listed as 100 times. In addition, the “inhibition of rat liver DHA-STS activity” value in experiment [2] is given as 99%. In experiment [3], the “inhibition of rat liver E1-STS activity” value is 99%. Further, the “inhibition of E1-STS activity” value in experiment [4] is given as “more than 99%”.
For `CNC(=O)c1[nH]nc2c1CC1C3CCc4cc(O)ccc4C3CC[C@]21C` (stereo partly drawn) [compound 893], the inhibition at 10 µM in experiment [5] (setting [7]) was 14%; in experiment [6] (setting [8]), 62%.
As for `Cn1cccc1CNC(=O)c1[nH]nc2c1CC1C3CCc4cc(O)ccc4C3CC[C@]21C` (stereo partly drawn) [compound 895], the inhibition at 10 µM is -4% in experiment [5] (setting [7]) and 89% in experiment [6] (setting [8]). In experiment [6], the IC50 is 2.3 µM.
`COC(=O)C1CC2C3CCc4cc(O)ccc4C3CC[C@]2(C)C1=O` (stereo partly drawn) [compound 568]: the figures for the inhibition at 10 µM in experiment [5] (setting [9]) and in experiment [6] (setting [10]) were 9% and 69%, respectively.
On to `CCN(C)C(=O)CC1CC2C3CCc4cc(O)ccc4C3CC[C@]2(C)C1=O` (stereo partly drawn) [compound 741], for which the inhibition at 10 µM stood at 5% in experiment [5] (setting [9]) and 79% in experiment [6] (setting [10]).
Consider `C[C@]12CCC3c4ccc(OS(N)(=O)=O)cc4CCC3C1C/C(=C\c1cccnc1)C2=O` (stereo partly drawn) [compound 453], for which the results for the inhibition at 10 µM in experiment [5] (setting [9]) and in experiment [6] (setting [10]) were 10% and 22%, respectively.
Turning to `C[C@]12CCC3c4ccc(O)cc4CCC3C1CC(C(=O)O)C2=O` (stereo partly drawn) [compound 610], the inhibition at 10 µM in experiment [5] (setting [9]) was found to be 1%; in experiment [6] (setting [10]), 95%. Besides, the IC50 in experiment [6] was found to be 0.94 µM.
Regarding `COC(=O)C1(CN2C(=O)c3ccccc3C2=O)CC2C3CCc4cc(O)ccc4C3CC[C@]2(C)C1=O` (stereo partly drawn) [compound 780], the values for the inhibition at 10 µM in experiment [5] (setting [9]) and in experiment [6] (setting [10]) were 17% and 71%, respectively.
For the compound `CC1(C#N)CC2C3CCc4cc(O)ccc4C3CC[C@]2(C)C1=O` (stereo partly drawn) [compound 924], the results for the inhibition at 10 µM in experiment [5] (setting [9]) and in experiment [6] (setting [10]) were 12% and 85%, respectively.
Consider `CCN(CC)C(=O)CC1CC2C3CCc4cc(O)ccc4C3CC[C@]2(C)C1=O` (stereo partly drawn) [compound 742], for which the results for the inhibition at 10 µM in experiment [5] (setting [9]) and in experiment [6] (setting [10]) were 2% and 82%, respectively.
For `CCOC(=O)/C(O)=C1\CC2C3CCc4cc(O)ccc4C3CC[C@]2(C)C1=O` (stereo partly drawn) [compound 330], the inhibition at 10 µM came out at 7% in experiment [5] (setting [9]) and 72% in experiment [6] (setting [10]). Further, the “% inhibition of 17β-HSD1 @ 10 μM” value in experiment [6] (10 μM) is given as 77%.
